Like-named read-outs stand apart in the source and are kept apart here.
Tests used:
[1] = system: MOLM14(D835Y) cells; format: cell-based; conditions: MOLM14(D835Y) cells; for Excess HSA Score: 10 × 10
[2] = target: T1, IRAK4 (Homo sapiens, UniProt Q9NWZ3); assay: Reaction Biology NanoBRET target engagement assay in HEK-293 cells, IRAK4; conditions: NanoBRET IRAK4 IC50, HEK-293 cells
T1 sequence (Q9NWZ3 1-460): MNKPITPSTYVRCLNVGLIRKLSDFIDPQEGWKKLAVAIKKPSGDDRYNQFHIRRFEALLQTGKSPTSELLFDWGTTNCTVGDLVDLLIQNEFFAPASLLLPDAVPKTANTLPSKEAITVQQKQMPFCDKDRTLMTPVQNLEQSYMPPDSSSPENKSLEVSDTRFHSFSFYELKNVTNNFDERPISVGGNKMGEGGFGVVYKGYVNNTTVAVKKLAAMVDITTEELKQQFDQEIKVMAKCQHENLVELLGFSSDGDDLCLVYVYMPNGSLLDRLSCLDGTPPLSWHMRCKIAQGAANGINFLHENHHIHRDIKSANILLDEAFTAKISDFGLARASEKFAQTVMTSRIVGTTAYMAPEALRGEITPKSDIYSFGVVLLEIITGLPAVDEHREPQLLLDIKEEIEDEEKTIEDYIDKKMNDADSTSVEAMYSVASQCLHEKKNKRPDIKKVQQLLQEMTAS

[3] = target: T1, IRAK4; assay: RBC HotSpot Kinase Assay, IRAK4; conditions: IRAK4 IC50
[4] = target: T2, FLT3 (Homo sapiens, UniProt P36888); assay: Reaction Biology NanoBRET target engagement assay in HEK-293 cells, FLT3; conditions: NanoBRET FLT3 IC50, HEK-293 cells
T2 sequence (P36888 27-993): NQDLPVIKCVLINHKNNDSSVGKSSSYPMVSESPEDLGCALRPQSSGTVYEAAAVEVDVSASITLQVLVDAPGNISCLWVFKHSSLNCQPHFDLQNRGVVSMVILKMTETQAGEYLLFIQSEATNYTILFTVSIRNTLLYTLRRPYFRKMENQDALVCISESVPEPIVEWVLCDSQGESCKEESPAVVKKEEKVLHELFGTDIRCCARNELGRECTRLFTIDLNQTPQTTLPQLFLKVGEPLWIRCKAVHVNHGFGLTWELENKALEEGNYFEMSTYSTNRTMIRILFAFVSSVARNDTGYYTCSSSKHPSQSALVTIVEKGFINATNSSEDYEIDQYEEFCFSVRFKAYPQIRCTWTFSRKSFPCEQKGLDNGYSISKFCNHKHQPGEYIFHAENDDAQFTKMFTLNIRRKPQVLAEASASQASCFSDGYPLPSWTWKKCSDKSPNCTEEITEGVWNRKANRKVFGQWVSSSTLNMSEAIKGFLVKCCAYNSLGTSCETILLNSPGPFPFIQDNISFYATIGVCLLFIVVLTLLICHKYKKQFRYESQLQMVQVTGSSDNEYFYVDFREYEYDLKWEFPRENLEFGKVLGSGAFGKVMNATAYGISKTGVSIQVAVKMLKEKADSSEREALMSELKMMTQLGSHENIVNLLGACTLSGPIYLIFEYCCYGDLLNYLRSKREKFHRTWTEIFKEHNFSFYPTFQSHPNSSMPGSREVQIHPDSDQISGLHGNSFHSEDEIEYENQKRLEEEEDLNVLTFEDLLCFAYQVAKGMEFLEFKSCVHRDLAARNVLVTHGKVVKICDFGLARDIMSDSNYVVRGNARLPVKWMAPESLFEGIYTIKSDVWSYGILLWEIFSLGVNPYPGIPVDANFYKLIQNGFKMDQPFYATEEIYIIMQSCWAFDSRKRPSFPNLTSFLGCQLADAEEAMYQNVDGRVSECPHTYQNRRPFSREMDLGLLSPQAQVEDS

[5] = target: T3, IRAK1 (Homo sapiens, UniProt P51617); assay: RBC HotSpot Kinase Assay, IRAK1; conditions: IRAK1 IC50
[6] = system: MOLM14 F691L cells; assay: cells; format: cell-based; conditions: Homo sapiens, MOLM-14, 48 h, 48 hours, Cell Titer Glo; read-out: MOLM14 F691L IC50
[7] = system: MOLM14 D835Y cells; assay: cells; format: cell-based; conditions: Homo sapiens, MOLM-14, 48 h, 48 hours, Cell Titer Glo; read-out: MOLM14 D835Y IC50
[8] = system: THP1 cells; assay: Combination drug screening, Cell Titer Glo, 10 × 10 matrix, THP1 cells; format: cell-based; conditions: THP1 cells; for Excess HSA Score: 10 × 10
[9] = target: T4, FLT3 (Homo sapiens, UniProt P36888); assay: RBC HotSpot Kinase Assay, FLT3; conditions: FLT3 IC50
T4 sequence (P36888 610-943 limits assumed): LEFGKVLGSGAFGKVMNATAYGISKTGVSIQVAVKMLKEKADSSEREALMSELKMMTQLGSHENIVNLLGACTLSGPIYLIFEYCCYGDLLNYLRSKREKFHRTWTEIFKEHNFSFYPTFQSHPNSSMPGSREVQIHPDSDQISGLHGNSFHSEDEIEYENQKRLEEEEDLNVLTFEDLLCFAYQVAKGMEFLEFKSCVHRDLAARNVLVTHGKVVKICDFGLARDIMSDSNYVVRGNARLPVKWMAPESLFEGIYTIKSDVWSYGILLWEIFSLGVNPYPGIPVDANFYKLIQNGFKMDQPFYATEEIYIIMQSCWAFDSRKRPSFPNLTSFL

[10] = target: T1, IRAK4; assay: DiscoverX KINOMEscan competition binding, IRAK4; design: purchased RBC (Reaction Biology) HotSpot assay
[11] = target: T3, IRAK1; assay: DiscoverX KINOMEscan competition binding, IRAK1; design: purchased RBC (Reaction Biology) HotSpot assay
[12] = combination with (+)-BAY-1251152
[13] = combination with Eprenetapopt/APR-246
[14] = combination with Venetoclax (ABT-199)

T3 sequence (P51617 whole entry): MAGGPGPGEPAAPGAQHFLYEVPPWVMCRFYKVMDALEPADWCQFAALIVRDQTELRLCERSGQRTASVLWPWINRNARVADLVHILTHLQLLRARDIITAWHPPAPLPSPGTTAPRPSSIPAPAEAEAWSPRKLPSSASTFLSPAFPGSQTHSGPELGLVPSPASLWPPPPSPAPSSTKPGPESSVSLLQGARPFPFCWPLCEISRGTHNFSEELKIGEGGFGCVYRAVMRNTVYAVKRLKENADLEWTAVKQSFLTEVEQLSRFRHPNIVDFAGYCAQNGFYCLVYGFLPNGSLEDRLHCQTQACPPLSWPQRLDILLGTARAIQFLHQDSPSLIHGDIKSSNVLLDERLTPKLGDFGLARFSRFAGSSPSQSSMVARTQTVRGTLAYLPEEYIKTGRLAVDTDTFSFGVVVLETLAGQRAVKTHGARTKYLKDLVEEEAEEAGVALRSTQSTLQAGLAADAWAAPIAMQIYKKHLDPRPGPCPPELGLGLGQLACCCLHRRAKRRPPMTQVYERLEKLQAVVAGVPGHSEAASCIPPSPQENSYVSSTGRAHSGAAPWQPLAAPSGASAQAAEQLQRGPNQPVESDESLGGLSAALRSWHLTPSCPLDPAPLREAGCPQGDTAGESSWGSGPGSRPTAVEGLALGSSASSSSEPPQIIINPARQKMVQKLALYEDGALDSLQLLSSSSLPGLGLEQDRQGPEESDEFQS

Structure (SMILES)	Excess HSA Score [1, 12]	Excess HSA Score ([1]; combination with AMG-232)	Excess HSA Score ([1]; combination with AZD-5363)	Excess HSA Score [1, 13]	Excess HSA Score ([1]; combination with Ivosidenib)	Excess HSA Score ([1]; combination with Lenalidomide)	Excess HSA Score ([1]; combination with Palbociclib)	Excess HSA Score ([1]; combination with Prednisolone)	Excess HSA Score ([1]; combination with SNDX-5613)	Excess HSA Score ([1]; combination with TNO-155)	Excess HSA Score ([1]; combination with Trametinib)	Excess HSA Score ([1]; combination with Ulixertinib)	Excess HSA Score [1, 14]	Comments ([1]; combination with SNDX-5613)	Comments [1, 14]	IC50 [2]	IC50 [3]	IC50 [5]	IC50 [6]	IC50 [7]	also measured
COc1cc2ncc(-c3ccnc(N[C@H]4CNCC[C@@H]4F)n3)n2cc1C(C)(C)O [Compound 45, 2-(3-(2-(((3S,4S)-4-fluoropiperidin-3-yl)amino)pyrimidin-4-yl)-7-methoxyimidazo[1,2-a]pyridin-6-yl)propan-2-ol]	117.1	−212.5	384.6	477.7	−76.48	515.9	−172.2	−357.5	58.42	−372.6	−362.6	288.2	−803.3	Antagonistic	Synergistic	< 0.5 nM	0.7 nM	2 nM	43 nM	9 nM	IC50 [4]: 28 nM; Excess HSA Score [8, 12]: −402.7072; Excess HSA Score ([8]; combination with AMG-232): 138.2; Excess HSA Score ([8]; combination with AZD-5363): −206.1; Excess HSA Score [8, 13]: 183; Excess HSA Score ([8]; combination with Ivosidenib): 93.15; Excess HSA Score ([8]; combination with Lenalidomide): 388.3; Excess HSA Score ([8]; combination with Palbociclib): −236; Excess HSA Score ([8]; combination with Prednisolone): 67.79; Excess HSA Score ([8]; combination with SNDX-5613): 169.6; Excess HSA Score ([8]; combination with TNO-155): −134.2061; Excess HSA Score ([8]; combination with Trametinib): −226.2; Excess HSA Score ([8]; combination with Ulixertinib): 218.0361; Excess HSA Score [8, 14]: −360.8; Comments [8, 12]: Synergistic; Comments ([8]; combination with Prednisolone): Antagonistic; IC50 [9]: < 0.5 nM
COc1cc2ncc(-c3ccnc(N[C@H]4CNC[C@@H]4F)n3)n2cc1C(C)(C)O [Compound 43, 2-(3-(2-(((3S,4S)-4-fluoropyrrolidin-3-yl)amino)pyrimidin-4-yl)-7-methoxyimidazo[1,2-a]pyridin-6-yl)propan-2-ol]																	< 0.5 nM	0.7 nM	69 nM	11 nM	Kd [10]: 0.081 nM; Kd [11]: 0.33 nM
COc1ccn2c(-c3ccnc(N[C@H]4CNC[C@@H]4F)n3)cnc2c1 [Compound 28, N-((3S,4S)-4-fluoropyrrolidin-3-yl)-4-(7-methoxyimidazo[1,2-a]pyridin-3-yl)pyrimidin-2-amine]	−477	−628.3	−377.1	330.3	−92.39	340.1	−207.7	−600.8	49.85	−593.8	115.3	57.98	−1089	Antagonistic	Synergistic	0.7 nM	0.8 nM	6 nM	307 nM	19 nM	IC50 [4]: 65 nM; Excess HSA Score [8, 12]: −347.5; Excess HSA Score ([8]; combination with AMG-232): 401.8; Excess HSA Score ([8]; combination with AZD-5363): −208.6; Excess HSA Score [8, 13]: −126.4; Excess HSA Score ([8]; combination with Ivosidenib): 313; Excess HSA Score ([8]; combination with Lenalidomide): 486.7; Excess HSA Score ([8]; combination with Palbociclib): −270.8; Excess HSA Score ([8]; combination with Prednisolone): 381.4; Excess HSA Score ([8]; combination with SNDX-5613): 492.2; Excess HSA Score ([8]; combination with TNO-155): 98.5766; Excess HSA Score ([8]; combination with Trametinib): −880.8; Excess HSA Score ([8]; combination with Ulixertinib): −60.25; Excess HSA Score [8, 14]: −1412; Comments ([8]; combination with TNO-155): Antagonistic; Comments [8, 14]: Synergistic; IC50 [9]: < 0.5 nM

Reference: US20250154144A1 (CHILDREN'S HOSPITAL MEDICAL CENTER, priority 2021, published 2025)
